Reference: patent US20250295701A1, “Kit for Induction of Continuous Expansion of Hepatoblast Organoids and/or Hepatocyte Organoids Under 3D Suspension Conditions and Use Thereof” (South China University of Technology, priority 2022, published 2025)

Columns and labels:
hepatoblasts = assay: Step-down removal of factors from the HB organoid expansion medium; assay type: cell-based, human; details: for Ki67 expression level after removing the factor: flow cytometry, compared with complete medium group
Excerpt: Based on the related-signaling pathways affecting the regeneration/proliferation/expansion of hepatoblasts in vivo and in vitro, the development of the medium formula for HB organoid expansion was to initially select small molecules or cytokines corresponding to the pathways to mimic the process of hepatic progenitor regeneration, and finally the combination of small molecules with cytokines had been established. Through comprehensive investigation on a large amount of literature, it had been shown that Wnt, TGFβ, cAMP, Activin, EGF and HGF pathways were related to the regeneration of hepatoblasts. […] Afterwards, the step-down method through removing factors one by one from the combination had been used to verify which small molecule/cytokine was essential for the long-term culture of hepatoblasts. […] Finally, flow cytometry had been used to detect the expression levels of cell proliferation marker Ki67. […] Therefore, finally the expansion medium of HB organoid was determined as the fifth medium in Example 1: IMDM medium supplemented with 10 % w/w FBS, 1% w/w ITS, 1% w/w NEAA, 1% w/w GlutaMAX, 10 mM Nicotinamide, 5 μM CHIR99021, 10 µM SB431542, 10 μM FSK, 20 ng/mL FGF-4, 20 ng/mL BMP4, 20 ng/mL EGF and 5% Matrigel.

[1] = system: polarized hepatocyte organoids; assay: Cholestasis detection by CDFDA staining; assay type: cell-based, human; details: drug at its IC25 value for 48 hours
Procedure: In addition, CDFDA staining was used to test the appearance of the cholestasis in polarized hepatocyte organoids which are treated by these drugs at IC25 values of each drug for 48 hours, and then the occurrence of the cholestasis after drug treatment was evaluated by whether fluorescent CDFDA product is transported into bile canaliculi through apical protein.

[2] = system: polarized hepatocyte organoids; assay: Drug toxicology analysis (cell viability, IC50) in polarized hepatocyte organoids; assay type: cell-based, human; details: 48 hours after drug treatment, cell viability detection kit
Procedure: Polarized hepatocyte organoids (could be used in drug screening models 6 days after the maturation) after the maturation from the differentiation were collected, and distributed into ultra-low attachment 96-well culture plates using the pipette, about 10-20 organoids were seeded in each well, then different drugs could be employed for toxicology analysis. In this Example, toxicology analysis was performed on 8 kinds of drugs (Mannitol, Troglitazone, Chlorpromazine, Diclofenac, Cyclosporine A, Nefazodone, Tolcapone, Bosentan) to detect the ability of polarized hepatocyte organoids to predict the toxicity of each drug during drug screening/toxicology analysis. During the toxicology analysis, at least 7 different concentrations were selected for each drug, and wells in triplicate were performed for each concentration. Forty-eight hours after drug treatment, cell viabilities are detected using cell viability detection kit and IC50 curves were drawn. Finally, IC50 value of each drug for each cell type was calculated. In addition to polarized hepatocyte organoids, non-polarized hepatocyte spheroids and HepG2 cells (hepatoma cell lines, commonly used for hepatocyte drug screening) spheroids were also simultaneously used for drug toxicology analysis.

hepatocyte organoids = assay: Hepatocyte lipid accumulation model induced with oleic acid; assay type: cell-based, human
Procedure: After mature hepatocyte organoids were differentiated from long-term cultured HB organoids (the lipid accumulation model could be developed 6 days after the differentiation), oleic acid (OA) was used with the concentrations at 200 and 800 μM to induce the lipid accumulation model. […] Next spermidine (SPD), a drug that alleviates lipid accumulation in hepatocytes, was used to conduct the rescue. SPD was added into the medium at 200 μM at the same time during the treatment with OA. […] The above results lay the foundation for the subsequent applications of polarized hepatocyte organoids in the development of drugs related to hepatocyte lipid accumulation and the treatment of lipid accumulation.

[3] = system: phase I metabolizing enzymes
[4] = factor removed from complete medium

Cc1c[nH]c(-c2cnc(NCCNc3ccc(C#N)cn3)nc2-c2ccc(Cl)cc2Cl)n1 [CHIR99021]
efficiency of cloning formation after removing the factor (hepatoblasts; [4]): significantly reduced | morphological changes of cell spheroids after removing the factor (hepatoblasts; [4]): unable to form hollow organoid-like structures

O=C(O)Cc1ccccc1Nc1c(Cl)cccc1Cl [Dicofenac, Diclofenac]
occurrence of the cholestasis [1]: do not induce the cholestasis

OC[C@@H](O)[C@@H](O)[C@H](O)[C@H](O)CO [Mannitol]
toxicity to hepatocytes [2]: no toxic | occurrence of the cholestasis [1]: do not induce the cholestasis

CCCCCCCC/C=C\CCCCCCCC(=O)O [OA, oleic acid]
levels of intracellular ROS (hepatocyte organoids; OA 200 and 800 μM, flow cytometry): increased | levels of intracellular triglyceride (hepatocyte organoids; OA 200 and 800 μM, kit): increase | content of lipid droplets (hepatocyte organoids; OA 200 and 800 μM, two days, oil red staining): gradually increased | expression levels of lipid accumulation related genes FASN and PLIN2 (hepatocyte organoids; after OA modeling, qPCR): significantly increased

NC(=O)c1ccc(-c2nc(-c3ccc4c(c3)OCO4)c(-c3ccccn3)[nH]2)cc1 [SB431542]
efficiency of cloning formation after removing the factor (hepatoblasts; [4]): significantly reduced

NCCCCNCCCN [SPD, spermidine]
relative number of lipid droplets (hepatocyte organoids; SPD 200 μM added with OA, two days): significantly reduced | expression levels of genes related to lipid accumulation (hepatocyte organoids; SPD 200 μM added with OA, two days, qPCR): decreased

Cc1ccc(C(=O)c2cc(O)c(O)c([N+](=O)[O-])c2)cc1 [Tolcapone]
occurrence of the cholestasis [1]: do not induce the cholestasis

C[C@@H](N)[C@H]1CC[C@H](C(=O)Nc2ccncc2)CC1 [Y27632, Y-27632]
effect of Rock inhibitor during the expansion of HB organoids (hepatoblasts; added at cell inoculation): only maintains cell viability at day 0 | Ki67 expression level after removing the factor (hepatoblasts): higher expression peak

COc1ccc2[nH]c([S+]([O-])Cc3ncc(C)c(OC)c3C)nc2c1 (centres unmarked) [omeprazole]
drug metabolism levels (metabolic function of CYP3A4, CYP2C9 and CYP1A2) [3]: higher

hepatocyte growth factor [HGF]
Ki67 expression level after removing the factor (hepatoblasts): higher expression peak
